# Measurements reported in patent US5132402A, “Adsorbent, method for production thereof, and method for use thereof” (Agency of Industrial Science and Technology, priority 1987, dated 1992).
# Where a SMILES comes first, the peptide text is derived from it. Bridges are numbered along the chain shown (N, C = ends).
# Experiment: Solubility of the peptide in the phosphate buffer solution used for immobilization
# Type: physicochemical
# Conditions: phosphate buffer solution (0.02 mol/liter) of pH 7.4
# Experimental: (a) The immobilization procedure of Example 2(a) was repeated, except that 20 mg of the peptide obtained in Synthesizing Example 18 was used in place of 20 mg of the peptide obtained in Synthesizing Example 2.
smiles,measurement,value
CC(C)C[C@H](NC(=O)[C@H](Cc1ccc(O)cc1)NC(=O)[C@@H]1CCCN1C(=O)[C@@H](NC(=O)[C@H](CC(=O)O)NC(=O)[C@@H]1CCCN1C(=O)[C@@H]1CSSC[C@H](NC(=O)[C@@H](NC(=O)[C@H](Cc2ccc(O)cc2)NC(=O)[C@H](Cc2ccc(O)cc2)NC(=O)[C@@H](NC(=O)[C@H](Cc2c[nH]c3ccccc23)NC(=O)[C@H](Cc2c[nH]cn2)NC(=O)[C@H](CCCCN)NC(=O)[C@H](Cc2c[nH]c3ccccc23)NC(=O)CNC(=O)[C@H](CC(C)C)NC(=O)[C@@H](N)CC(C)C)C(C)C)[C@@H](C)O)C(=O)N1)[C@@H](C)O)C(=O)N[C@@H](CC(=O)O)C(=O)O [Synthesizing Example 18] (H-LLGWKHWVYYTCCPDTPYLD-OH; disulfide 12-13),solubility in the phosphate buffer solution,low solubility
